Data published in patent publication US20260284044A1, “PHARMACEUTICAL COMPOSITIONS OF VARENICLINE AND PROCESS THEREOF” (TENSHI KAIZEN L PRIVATE LIMITED, priority 2023, published 2026).

Experiments:
[1] = FDA, cited from earlier work
[2] = N-nitroso varenicline content of API and tablets, initial and on stability storage; type: physicochemical

## O=NN1CC2CC(C1)c1cc3nccnc3cc12 [N-nitroso-varenicline]
[1]; based on lifetime exposure
  Intake limit considered reasonably safe for humans: 37 nanograms per day
[1]; interim limit for distribution in the US
  Interim acceptable intake limit: ≤ 185 ng per day

## (2R,3R)-2,3-dihydroxybutanedioic acid;5,8,14-triazatetracyclo [10.3.1.02,11.04,9]hexadeca-2,4,6,8,10-pentaene [Varenicline API]
[2]; Batch API (EL-01-A179-2001003), limit NMT 18.5 ppm
  Results (nitroso varenicline): Less than 2 ppm
[2]; Orally disintegrating tablets 1 mg and API, initial data
  Initial (ppm) (N-nitroso varenicline): 1.73 ppm
